Laboratory results published in patent US12331042B2, “Compounds suitable for the treatment and prophylaxis of muscle wasting and other conditions” (priority 2019, dated 2025).
“Also recorded” adds a separate entry of the source.

Key:
Format in all cases: in vivo
[1] = tested on: C57/BL6 mice with LAD ligation (CHF); test: Myocardial infarction LAD mouse model (CHF, HFrEF); conditions: 0.1% compound in chow
Method: A myocardial infarction mouse model suffering from a heart failure with reduced ejection fraction (HFrEF) was generated by ligating the left anterior […] coronary artery (LAD) as described below to induce an acute myocardial infarction (MI) followed by the development of a chronic (systolic) heart failure (CHF).
A small animal surgery was carried out on C57/BL6 mice at 12 weeks of age in the Leipzig Heart Center following established and well known procedures in the field (see for example Bowen et al., J Appl Physiol, 2015, 118, 11-19; Mangner et al., J Cachexia Sarcopenia Muscle, 2015, 6, 381-390). Briefly, mice from the LAD group were anesthetized by i.p. injection of MMF; Medetomidin (0.5 mg/kg body weight), Midazolam (5.0 mg/kg body weight), Fentanyl (0.05 mg/kg body weight). Unconscious mice were fixed on an operation table. Ventral parts of the thorax were shaved, washed and sterilized. Unconscious mice were then intubated and ventilated with normal room air, using an animal respirator (TSE GmbH, Siemensstr. 21, 61352 Bad Homburg; product: http://tinateb.com/wp-content/uploads/2016/06/TSE_Respirator-Compact_20080724_HR.pdf). For LAD operation, the thorax was opened about 1 cm above the Processus xiphoideus and about 1 cm left parasternally by dissecting the skin here. The below located M. pectoralis was moved to the sides without further injury to access the thorax wall. The intercostal muscles between two ribs were moved to the side without breaking the ribs. The thereby created intrathoracic access was widened by a surgical spreader inserted above the pericardium. The pericardium was opened surgically stump by using two anatomical forceps. The thymus, if present in the surgical field, was pushed to the side with a surgical swab to gain access to the aortic root. The heart was carefully moved out of the pericardium using a hook, and the left atrium was put to the side with a surgical swab. The LAD was then ligated with a 5.0 Prolene suture (Ethicon, see http://www.ethicon.com/healthcare-professionals/products/wound-closure/non-absorbable-sutures/prolene-polypropylene). The ligation was made close to the aortic root, and the suture was tightened until paleness of the coronary artery anterior wall was noted. After ligation, the thorax wall and then the skin were closed by a single button seam using a 4.0 Prolene suture (company: Ethicon).
As a control, sham operations were performed. For the sham control group, the procedure followed was exactly the same as described above, except that the 5.0 prolene suture was only loosely out around the LAD without tightening.
The operation is ended by extubation, and antagonizing the anesthesia by i.p. injection of Atipamezol (2.5 mg/kg body weight) and Flumazenil (0.5 mg/kg body weight). Mice were put onto a warming mate until waking up, and then were transferred back to animal cages. The time for the whole procedure above by expert staff was around 30 min.
One week after LAD ligation, echocardiography was performed in M-mode to confirm MI, i.e. the left ventricular end-diastolic (LVEDD) and systolic (LVESD) diameters were assessed to allow calculation of left ventricular (LV) fractional shortening (LVFS=[LVEDD_LVESDLVEDD]×100). Only mice with a large infarct (left ventricular ejection fraction (LVEF)<20%) were subsequently randomized into two groups, i.e. one group receiving normal chow (CHF, n=11) and a second group receiving chow supplemented with compound (0.1% of compound MyoMed-946, CHF+MyoMed-946, n=12). Sham operated animals received only normal chow (n=15). Nine weeks later, echocardiography was performed again.
The animals were sacrificed to collect tissues, in particular diaphragm tissue, for functional and molecular characterization. All experiments and procedures were approved by the local Animal Research Council, University of Leipzig, and the Landesbehörde Sachsen (TVV 36/15).

[2] = tested on: diaphragm fiber bundle of MCT mice; test: Contractile function of diaphragm fiber bundles, MCT mice; conditions: MCT mice fed compound vs MCT; MCT impairs by around 20% vs sham
Method: To provide a direct functional assessment, the contractility in skeletal muscle fiber bundles, i.e. fibre bundle from the diaphragm of MCT mice and CIF mice, was measured as follows. A fiber bundle from the diaphragm was isolated to allow in vitro contractile function to be assessed using a length-controlled lever system (301B, Aurora Scientific Inc., Aurora, Canada), as described by Bowen et al., FASEB J, 2017, 31. Briefly, a muscle bundle was mounted vertically in a buffer-filled organ bath (˜22° C.), set at optimal length, and after 15 min was stimulated over a force-frequency protocol between 1-300 Hz (600 mA; 500 ms train duration; 0.25 ms pulse width). […] Shortening velocity was determined 10 ms after the first change in length and on the linear section of the transient (DMA software, Aurora Scientific). Force (N) was normalized to muscle cross-sectional area (CSA; cm^2) by dividing muscle mass (g) by the product of Lo (cm) and estimated muscle density (1.06), which allowed specific force in N/cm^2 to be calculated. Shortening velocity was normalized to optimal muscle length (in Lo/s), while power was calculated for each load as the product of shortening velocity and specific force (in W/cm^2).

[3] = tested on: citrate synthase, succinate dehydrogenase, mitochondrial complex I, cytoplasmic enzymes; test: Enzyme activity measurements in diaphragm tissue, CHF mice; conditions: CHF+compound
Method: Diaphragmatic tissue was homogenized in relaxing buffer, and aliquots were used for enzyme activity measurements. Enzyme activities for lactate dehydrogenase (EC 1.1.1.27), pyruvate kinase (EC 2.7.1.40), succinate dehydrogenase (SDH, EC 1.3.5.1), citrate synthase (CS, EC 2.3.3.1), β-hydroxyacyl-COA dehydrogenase (EC 1.1.1.35), and mitochondrial complex I were measured spectrophotometrically as previously described in detail (Mukherjee et al., J Biol Chem, 1976, 251, 2155-2160; Vanderlinde et al., Ann Clin Lab Sci, 1985, 15, 13-31; Dzeja et al., Mol Cell Biochem, 1999, 201, 33-40; Takashi et al., Biochim Biohphys Acta, 1979, 574, 258-267; Schwarzer et al., J Physiol, 2014, 592, 3767-3782). Enzyme activity data are presented as the fold change relative to sham.

[4] = after 10 weeks of intervention, n = 12
[5] = after 10 weeks, echocardiography

What does the source list for `Cc1cc(=O)oc2cc(OCc3ccc(C(=O)OCC(=O)NC(=O)NCc4ccco4)cc3)ccc12` [MyoMed-946, [2-(2-furylmethylcarbamoylamino)-2-oxo-ethyl] 4-[(4-methyl-2-oxo-chromen-7-yl)oxymethyl]benzoate]?
LV infarct size ([1]; after 10 weeks of intervention, histology): 27.1 ± 2.9%; Heart-to-body weight [1, 4]: 7.52 ± 0.57 mg/g; Lung weight (wet/dry) [1, 4]: 4.47 ± 0.10; LVEDD [1, 5]: 5.9 ± 0.2 mm; LVEF [1, 5]: 21.1 ± 2.5 %; LVESD [1, 5]: 5.3 ± 0.2 mm; LVFS [1, 5]: 9.9 ± 1.2 %; contractile dysfunction of the diaphragm (shortening velocity and power) [2]: essentially prevented; citrate synthase enzyme activity ([3]; reduced by 21% in CHF vs sham): attenuated; also recorded: partially improved; mitochondrial complex I enzyme activity ([3]; reduced by 27% in CHF vs sham): attenuated; also recorded: partially improved; succinate dehydrogenase enzyme activity ([3]; reduced by 28% in CHF vs sham): attenuated; also recorded: partially improved
